The values below come from patent publication US6150385A, “1,3,4-thiadiazoles useful for the treatment of CMV infections” (Pharmacia & Upjohn Company, priority 1999, dated 2000).

T1 sequence (P08546 whole entry): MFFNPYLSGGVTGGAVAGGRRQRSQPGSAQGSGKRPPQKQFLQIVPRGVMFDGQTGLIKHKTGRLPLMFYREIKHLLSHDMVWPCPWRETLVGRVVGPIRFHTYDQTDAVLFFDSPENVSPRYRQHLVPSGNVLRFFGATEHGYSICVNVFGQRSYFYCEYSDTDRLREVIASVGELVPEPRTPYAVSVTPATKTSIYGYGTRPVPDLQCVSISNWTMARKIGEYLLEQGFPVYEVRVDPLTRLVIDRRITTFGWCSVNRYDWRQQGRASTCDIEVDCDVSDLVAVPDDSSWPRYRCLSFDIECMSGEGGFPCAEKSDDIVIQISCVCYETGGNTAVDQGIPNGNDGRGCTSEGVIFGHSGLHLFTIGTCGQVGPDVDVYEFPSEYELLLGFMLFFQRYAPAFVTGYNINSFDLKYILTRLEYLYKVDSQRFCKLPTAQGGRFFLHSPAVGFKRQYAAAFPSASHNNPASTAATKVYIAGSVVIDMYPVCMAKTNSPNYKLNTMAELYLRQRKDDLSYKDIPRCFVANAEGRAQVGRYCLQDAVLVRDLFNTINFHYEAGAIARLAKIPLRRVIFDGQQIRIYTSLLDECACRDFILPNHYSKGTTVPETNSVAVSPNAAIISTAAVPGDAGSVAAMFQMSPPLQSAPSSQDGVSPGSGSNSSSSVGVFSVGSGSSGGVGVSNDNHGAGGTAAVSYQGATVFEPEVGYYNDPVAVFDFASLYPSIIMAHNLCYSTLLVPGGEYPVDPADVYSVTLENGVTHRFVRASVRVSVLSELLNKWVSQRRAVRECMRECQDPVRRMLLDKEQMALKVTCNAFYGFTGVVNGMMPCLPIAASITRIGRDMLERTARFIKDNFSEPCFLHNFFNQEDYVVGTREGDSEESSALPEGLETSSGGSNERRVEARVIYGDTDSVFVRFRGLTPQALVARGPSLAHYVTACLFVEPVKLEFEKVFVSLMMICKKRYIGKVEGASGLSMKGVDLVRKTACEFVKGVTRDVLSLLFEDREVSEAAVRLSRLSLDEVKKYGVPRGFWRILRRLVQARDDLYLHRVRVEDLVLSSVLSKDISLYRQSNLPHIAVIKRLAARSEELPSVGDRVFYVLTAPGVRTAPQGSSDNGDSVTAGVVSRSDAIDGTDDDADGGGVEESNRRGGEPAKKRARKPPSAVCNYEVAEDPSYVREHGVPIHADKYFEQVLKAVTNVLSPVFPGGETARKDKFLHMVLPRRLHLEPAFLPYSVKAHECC

This test has as its target T1, HCMV polymerase (Human cytomegalovirus, UniProt P08546).
T1 construct: made in house; host or cells: SF-9 insect cells infected with recombinant baculovirus
Description: HCMV polymerase assay (scintillation proximity assay). The test is classed as biochemical. As to conditions: percentage of inhibition at 25 μM concentration in CMV polymerase assay. The method, then: The compounds of the present invention are tested in an polymerase assay to show activity described below, which is indicative of a compound's activity and thus of its use as an anti-viral agent.
The HCMV polymerase assay is performed using a scintillation proximity assay (SPA) as described in several references, such as N. D. Cook, et al., Pharmaceutical Manufacturing International, pages 49-53 (1992); K. Takeuchi, Laboratory Practice, September issue (1992); U.S. Pat. No. 4,568,649 (1986); which are incorporated by reference herein. Reactions are performed in 96-well plates. The assay is conducted in 100 μl volume with 5.4 mM HEPES (pH 7.5), 11.7 mM KCl, 4.5 mM MgCl2, 0.36 mg/ml BSA, and 90 nM ^3 H-dTTP. Assays are run with and without CHAPS, (3-[(3-Cholamidopropyl)-dimethylammonio]-1-propanesulfonate) at a final concentration of 2 mM. HCMV is diluted in enzyme dilution buffer containing 50% glycerol, 250 mM NaCl, 10 mM HEPES (pH 7.5), 100 μg/ml BSA, and 0.01% sodium azide. The HCMV polymerase, which is expressed in recombinant baculovirus-infected SF-9 cells and purified according to literature procedures, is added at 10% (or 10 μl) of the final reaction volume, i.e., 100 μl. Compounds are diluted in 50% DMSO and 10 μl are added to each well. Control wells contain an equivalent concentration of DMSO. Unless noted otherwise, reactions are initiated via the addition of 6 nM biotinylated poly(dA)-oligo(dT) template/primer to reaction mixtures containing the enzyme, substrate, and compounds of interest. Plates are incubated in a 25° C. or 37° C. H2 O bath and terminated via the addition of 40 μl/reaction of 0.5 M EDTA (pH 8) per well. Reactions are terminated within the time-frame during which substrate incorporation is linear and varied depending upon the enzyme and conditions used, i.e., 30 min. for HCMV polymerase. Ten μl of streptavidin-SPA beads (20 mg/ml in PBS/10% glycerol) are added following termination of the reaction. Plates are incubated 10 min. at 37° C., then equilibrated to room temperature, and counted on a Packard Topcount.
In TABLE 1, "MS" refers to mass spectral data, "% inhib" refers to percentage of inhibition at 25 μM concentration in CMV polymerase assay.
As for `CCCCCCCC/C=C/CCCCCCCC(=O)Nc1nnc(NCc2cccnc2)s1` [compound 72, (E)-N-{5-[(3-pyridinylmethyl)amino]-1,3,4-thiadiazol-2-yl}-9-octadecenamide], the inhibition at 25 µM came out at 69.3%.

The compound `O=C(/C=C/c1ccccc1)Nc1nnc(NCCSc2ccccc2)s1` [compound 114, (E)-3-phenyl-N-(5-{[2-(phenylsulfanyl)ethyl]amino}-1,3,4-thiadiazol-2-yl)-2-propenamide] came in with an inhibition at 25 µM of 62.1%.

For `CCCCCCCC/C=C/CCCCCCCC(=O)Nc1nnc(NCCc2ccc(S(N)(=O)=O)cc2)s1` [compound 336, (E)-N-(5-{[4-(aminosulfonyl)phenethyl]amino}-1,3,4-thiadiazol-2-yl)-9-octadecenamide], the inhibition at 25 µM is 31.6%.

As for `O=C(/C=C/c1ccccc1Cl)Nc1nnc(NCC2CC2)s1` [compound 34, (E)-3-(2-chlorophenyl)-N-{5-[(cyclopropylmethyl)amino]-1,3,4-thiadiazol-2-yl}-2-propenamide], the inhibition at 25 µM is 89.9%.

Take `CC(C)c1cc(C(C)C)c(C(=O)Nc2nnc(NCc3cccc4ccccc34)s2)c(C(C)C)c1` [compound 173, 2,4,6-triisopropyl-N-{5-[(1-naphthylmethyl)amino]-1,3,4-thiadiazol-2-yl}benzamide]: the inhibition at 25 µM came to 49.5%.

`N#Cc1ccc(C(=O)Nc2nnc(NCc3ccc(F)cc3)s2)cc1` [compound 74, 4-cyano-N-{5-[(4-fluorobenzyl)amino]-1,3,4-thiadiazol-2-yl}benzamide] yielded an inhibition at 25 µM of 69%.

The compound `CC(C)c1cc(C(C)C)c(C(=O)Nc2nnc(NCCCCc3ccccc3)s2)c(C(C)C)c1` [compound 260, 2,4,6-triisopropyl-N-{5-[(4-phenylbutyl)amino]-1,3,4-thiadiazol-2-yl}benzamide] gave an inhibition at 25 µM of 39.6%.

Consider `Cc1ccc(C(=O)Nc2nnc(NCCCCc3ccccc3)s2)cc1` [compound 356, 4-methyl-N-{5-[(4-phenylbutyl)amino]-1,3,4-thiadiazol-2-yl}benzamide], for which at 25 µM the inhibition was 29.6%.

Compound `CCOc1ccc2ccccc2c1C(=O)Nc1nnc(NC2CC2)s1` [compound 227, N-[5-(cyclopropylamino)-1,3,4-thiadiazol-2-yl]-2-ethoxy-1-naphthamide] came in with an inhibition at 25 µM of 42.8%.

Turning to `N#CCCNc1nnc(NC(=O)c2c(Cl)cccc2Cl)s1` [compound 146, 2,6-dichloro-N-{5-[(2-cyanoethyl)amino]-1,3,4-thiadiazol-2-yl}benzamide], testing at 25 µM gave an inhibition of 54.8%.

The compound `O=C(Nc1nnc(NCc2cccc3ccccc23)s1)c1c(Cl)cccc1Cl` [compound 101, 2,6-dichloro-N-{5-[(1-naphthylmethyl)amino]-1,3,4-thiadiazol-2-yl}benzamide] came in with an inhibition at 25 µM of 65%.

For the compound `CC(C)c1cc(C(C)C)c(C(=O)Nc2nnc(NCCC(=O)OC(C)(C)C)s2)c(C(C)C)c1` [compound 388, tert-butyl 3-({5-[(2,4,6-triisopropylbenzoyl)amino]-1,3,4-thiadiazol-2-yl}amino)propanoate], 25 µM produced 26.6% inhibition.

`O=C(Nc1nnc(NCC2CC2)s1)c1ccc(I)cc1` [compound 470, N-{5-[(cyclopropylmethyl)amino]-1,3,4-thiadiazol-2yl}-4-iodobenzamide] returned an inhibition at 25 µM of 20%.

`CCOc1ccc2ccccc2c1C(=O)Nc1nnc(NCCc2c[nH]cn2)s1` [compound 89, 2-ethoxy-N-(5-{[2-(1H-imidazol-4-yl)ethyl]amino}-1,3,4-thiadiazol-2-yl)-1-naphthamide] showed an inhibition at 25 µM of 66.3%.

`O=C(Nc1nnc(NCCCNC2CCCCC2)s1)c1ccc([N+](=O)[O-])o1` [compound 126, N-(5-{[3-(cyclohexylamino)propyl]amino}-1,3,4-thiadiazol-2-yl)-5-nitro-2-furamide] registered an inhibition at 25 µM of 58.9%.

`COc1ccccc1C(=O)Nc1nnc(NCC(c2ccccc2)c2ccccc2)s1` [compound 224, N-{5-[(2,2-diphenylethyl)amino]-1,3,4-thiadiazol-2-yl}-2-methoxybenzamide] had an inhibition at 25 µM of 43%.

Take `O=C(/C=C/c1ccccc1Cl)Nc1nnc(NCC2CCCCC2)s1` [compound 439, (E)-3-(2-chlorophenyl)-N-{5-[(cyclohexylmethyl)amino]-1,3,4-thiadiazol-2-yl}-2-propenamide]: the inhibition at 25 µM is 22.5%.

`O=C(Nc1nnc(NCc2cccs2)s1)c1c(Cl)cccc1Cl` [compound 118, 2,6-dichloro-N-{5-[(2-thienylmetyl)amino]-1,3,4-thiadiazol-2-yl}benzamide] had an inhibition at 25 µM of 61.2%.

On to `O=C(Nc1nnc(NC2CCCCCC2)s1)c1cccc([N+](=O)[O-])c1` [compound 201, N-[5-(cycloheptylamino)-1,3,4-thiadiazol-2-yl]-3-nitrobenzamide], for which at 25 µM the inhibition was 45.3%.

For the compound `CC(C)c1cc(C(C)C)c(C(=O)Nc2nnc(NC[C@@H]3CCC4CC3C4(C)C)s2)c(C(C)C)c1` (stereo partly drawn) [compound 440, N-[5-({[(2R)-6,6-dimethylbicyclo[3.1.1]hept-2-yl]methyl}amino)-1,3,4-thiadiazol-2-yl]-2,4,6-triisopropylbenzamide], 25 µM produced 22.5% inhibition.

Compound `O=C(/C=C/c1ccccc1)Nc1nnc(NCCc2ccccc2)s1` [compound 262, (E)-N-[5-(phenethylamino)-1,3,4-thiadiazol-2-yl]-3-phenyl-2-propenamide] yielded an inhibition at 25 µM of 39.5%.

Regarding `N#Cc1ccc(C(=O)Nc2nnc(NCc3cccs3)s2)cc1` [compound 365, 4-cyano-N-{5-[(2-thienylmethyl)amino]-1,3,4-thiadiazol-2-yl}benzamide], the inhibition at 25 µM is 28.7%.

As for `O=C(Nc1nnc(NCC(c2ccccc2)c2ccccc2)s1)c1cc(F)cc(F)c1` [compound 188, N-{5-[(2,2-diphenylethyl)amino]-1,3,4-thiadiazol-2-yl}-3,5-difluorobenzamide], testing at 25 µM gave an inhibition of 47.2%.

Consider `CCOc1ccc2ccccc2c1C(=O)Nc1nnc(NCCC(=O)OC(C)(C)C)s1` [compound 293, tert-butyl 3-[(5-{[(2-ethoxy-1-naphthyl)carbonyl]amino}-1,3,4-thiadiazol-2-yl)amino]propanoate], for which testing at 25 µM gave an inhibition of 35.5%.

The compound `O=C(CCCCCl)Nc1nnc(NCc2cccc3ccccc23)s1` [compound 200, 5-chloro-N-{5-[(1-naphthylmethyl)amino]-1,3,4-thiadiazol-2-yl}pentanamide] had an inhibition at 25 µM of 45.3%.

Compound `O=C(Nc1nnc(NCCCN2CCCC2=O)s1)c1cc2ccccc2s1` [compound 150, N-(5-{[3-(2-oxo-1-pyrrolidinyl)propyl]amino}-1,3,4-thiadiazol-2-yl)-1-benzothiophene-2-carboxamide] gave an inhibition at 25 µM of 54.5%.

As to `CCCCCCCC/C=C/CCCCCCCC(=O)Nc1nnc(NC2CCN(Cc3ccccc3)CC2)s1` [compound 253, (E)-N-{5-[(1-benzyl-4-piperidinyl)amino]-1,3,4-thiadiazol-2-yl}-9-octadecenamide], the inhibition at 25 µM is 40.1%.

As for `O=C(Nc1nnc(NCCc2c[nH]c3ccccc23)s1)c1cccc([N+](=O)[O-])c1` [compound 271, N-(5-{[2-(1H-indol-3-yl)ethyl]amino}-1,3,4-thiadiazol-2-yl)-3-nitrobenzamide], the inhibition at 25 µM was 38.4%.

In turn, `O=C(Nc1nnc(NCc2ccc3c(c2)OCO3)s1)c1ccc(I)cc1` [compound 459, N-{5-[(1,3-benzodioxol-5-ylmethyl)amino]-1,3,4-thiadiazol-2-yl}-4-iodobenzamide] came in with an inhibition at 25 µM of 20.7%.

Take `O=C(/C=C/c1ccccc1Cl)Nc1nnc(NCc2ccccn2)s1` [compound 161, (E)-3-(2-chlorophenyl)-N-{5-[(2-pyridinylmethyl)amino]-1,3,4-thiadiazol-2-yl}-2-propenamide]: the inhibition at 25 µM is 51.9%.

For the compound `O=C(/C=C/c1ccccc1Cl)Nc1nnc(NC2CCC2)s1` [compound 276, (E)-3-(2-chlorophenyl)-N-[5-(cyclobutylamino)-1,3,4-thiadiazol-2-yl]-2-propenamide], at 25 µM the inhibition was 37.9%.

In turn, `CCOc1ccc2ccccc2c1C(=O)Nc1nnc(NCc2ccc(F)cc2)s1` [compound 71, 2-ethoxy-N-{5-[(4-fluorobenzyl)amino]-1,3,4-thiadiazol-2-yl}-1-naphthamide] gave an inhibition at 25 µM of 69.8%.

In turn, `O=C(Nc1nnc(NCCCCc2ccccc2)s1)c1ccc(Br)cc1` [compound 170, 4-bromo-N-{5-[(4-phenylbutyl)amino]-1,3,4-thiadiazol-2-yl}benzamide] registered an inhibition at 25 µM of 50.5%.
